Measurements reported in patent US4442044A, “Process for preparing monoesters and diesters of N-alkyl substituted amino methyl phosphonic acid” (priority 1983, dated 1984).

Columns and labels:
Test in all cases: post-emergent herbicidal activity, greenhouse
Type in all cases: in vivo
Barnyardgrass = tested on: Barnyardgrass
In short: (§1)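 Seeds or propagules sown in compacted top soil, grown 2–3 weeks in greenhouse, then sprayed with compound solution/suspension containing ~0.4% emulsifier at tabulated rates. Injury scored visually versus untreated controls at ~2 and 4 weeks after treatment, expressed as a herbicidal activity index.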

Canada Thistle = details: Table I, 4 WAT
In short: as §1

Cocklebur = tested on: Cocklebur
In short: as §1

Crabgrass = details: Table II
In short: as §1

Downy Brome = tested on: Downy Brome
In short: as §1

Hemp Sesbania = details: Table II
In short: as §1

Johnsongrass = details: Table I, 4 WAT
In short: as §1

Lambsquarters = tested on: Lambsquarters
In short: as §1

Morningglory = tested on: Morningglory
In short: as §1

Panicum Spp = details: Table II
In short: as §1

Quackgrass = details: Table I, 4 WAT
In short: as §1

Rice = details: Table II
In short: as §1

Smartweed = tested on: Smartweed
In short: as §1

Sorghum = details: Table II
In short: as §1

Soybean = details: Table II
In short: as §1

Sugar Beet = details: Table II
In short: as §1

Velvetleaf = tested on: Velvetleaf
In short: as §1

Wheat = details: Table II
In short: as §1

Wild Buckwheat = details: Table II
In short: as §1

Yellow Nutsedge = details: Table I, 4 WAT
In short: as §1

`CC(C#N)OP(=O)(O)CNCC(=O)OCc1ccccc1` (stereo not shown) [Example 10, glycine, N-[[(1-cyanoethoxy)hydroxyphosphinyl]methyl]-,phenylmethyl ester] was tested, and the “post-emergent herbicidal activity index” value (Barnyardgrass; Table I, 4 WAT, 5.6 kg/h) was 2 (50-74% control), the “post-emergent herbicidal activity index” value (Barnyardgrass; Table I, 4 WAT, 11.2 kg/h) was 3 (75-99% control) and the “post-emergent herbicidal activity index” value (Barnyardgrass; Table II, 2 WAT, 0.011 kg/h) was 0 (0-24% control). For the same compound, the “post-emergent herbicidal activity index” value (Barnyardgrass; Table II, 2 WAT, 0.056 kg/h) was 0 (0-24% control), the “post-emergent herbicidal activity index” value (Barnyardgrass; Table II, 4 WAT, 0.28 kg/h) was 2 (50-74% control) and the “post-emergent herbicidal activity index” value (Barnyardgrass; Table II, 4 WAT, 1.12 kg/h) was 2 (50-74% control). The “post-emergent herbicidal activity index” value (Barnyardgrass; Table II, 4 WAT, 5.6 kg/h) was 3 (75-99% control), the “post-emergent herbicidal activity index” value (Canada Thistle; 5.6 kg/h) was 1 (25-49% control) and the “post-emergent herbicidal activity index” value (Canada Thistle; 11.2 kg/h) was 2 (50-74% control). The “post-emergent herbicidal activity index” value (Cocklebur; Table I, 4 WAT, 5.6 kg/h) was 2 (50-74% control), the “post-emergent herbicidal activity index” value (Cocklebur; Table I, 4 WAT, 11.2 kg/h) was 2 (50-74% control) and the “post-emergent herbicidal activity index” value (Cocklebur; Table II, 2 WAT, 0.011 kg/h) was 0 (0-24% control). For the same compound, the “post-emergent herbicidal activity index” value (Cocklebur; Table II, 2 WAT, 0.056 kg/h) was 0 (0-24% control), the “post-emergent herbicidal activity index” value (Cocklebur; Table II, 4 WAT, 0.28 kg/h) was 1 (25-49% control) and the “post-emergent herbicidal activity index” value (Cocklebur; Table II, 4 WAT, 1.12 kg/h) was 2 (50-74% control). The “post-emergent herbicidal activity index” value (Cocklebur; Table II, 4 WAT, 5.6 kg/h) was 3 (75-99% control), the “post-emergent herbicidal activity index” value (Crabgrass; 2 WAT, 0.011 kg/h) was 0 (0-24% control) and the “post-emergent herbicidal activity index” value (Crabgrass; 2 WAT, 0.056 kg/h) was 1 (25-49% control). The “post-emergent herbicidal activity index” value (Crabgrass; 4 WAT, 0.28 kg/h) was 4 (100% control), the “post-emergent herbicidal activity index” value (Crabgrass; 4 WAT, 1.12 kg/h) was 4 (100% control) and the “post-emergent herbicidal activity index” value (Crabgrass; 4 WAT, 5.6 kg/h) was 4 (100% control). The “post-emergent herbicidal activity index” value (Downy Brome; Table I, 4 WAT, 5.6 kg/h) was 2 (50-74% control), the “post-emergent herbicidal activity index” value (Downy Brome; Table I, 4 WAT, 11.2 kg/h) was 1 (25-49% control) and the “post-emergent herbicidal activity index” value (Downy Brome; Table II, 2 WAT, 0.011 kg/h) was 0 (0-24% control). The “post-emergent herbicidal activity index” value (Downy Brome; Table II, 2 WAT, 0.056 kg/h) was 0 (0-24% control), the “post-emergent herbicidal activity index” value (Downy Brome; Table II, 4 WAT, 0.28 kg/h) was 1 (25-49% control) and the “post-emergent herbicidal activity index” value (Downy Brome; Table II, 4 WAT, 1.12 kg/h) was 2 (50-74% control). For the same compound, the “post-emergent herbicidal activity index” value (Downy Brome; Table II, 4 WAT, 5.6 kg/h) was 2 (50-74% control), the “post-emergent herbicidal activity index” value (Hemp Sesbania; 2 WAT, 0.011 kg/h) was 0 (0-24% control) and the “post-emergent herbicidal activity index” value (Hemp Sesbania; 2 WAT, 0.056 kg/h) was 0 (0-24% control). For the same compound, the “post-emergent herbicidal activity index” value (Hemp Sesbania; 4 WAT, 1.12 kg/h) was 1 (25-49% control), the “post-emergent herbicidal activity index” value (Hemp Sesbania; 4 WAT, 5.6 kg/h) was 1 (25-49% control) and the “post-emergent herbicidal activity index” value (Johnsongrass; 5.6 kg/h) was 0 (0-24% control). The “post-emergent herbicidal activity index” value (Johnsongrass; 11.2 kg/h) was 1 (25-49% control), the “post-emergent herbicidal activity index” value (Lambsquarters; Table I, 4 WAT, 5.6 kg/h) was 3 (75-99% control) and the “post-emergent herbicidal activity index” value (Lambsquarters; Table I, 4 WAT, 11.2 kg/h) was 3 (75-99% control). For the same compound, the “post-emergent herbicidal activity index” value (Lambsquarters; Table II, 2 WAT, 0.011 kg/h) was 0 (0-24% control), the “post-emergent herbicidal activity index” value (Lambsquarters; Table II, 2 WAT, 0.056 kg/h) was 1 (25-49% control) and the “post-emergent herbicidal activity index” value (Lambsquarters; Table II, 4 WAT, 0.28 kg/h) was 2 (50-74% control). For the same compound, the “post-emergent herbicidal activity index” value (Lambsquarters; Table II, 4 WAT, 1.12 kg/h) was 3 (75-99% control), the “post-emergent herbicidal activity index” value (Lambsquarters; Table II, 4 WAT, 5.6 kg/h) was 3 (75-99% control) and the “post-emergent herbicidal activity index” value (Morningglory; Table I, 4 WAT, 5.6 kg/h) was 2 (50-74% control). The “post-emergent herbicidal activity index” value (Morningglory; Table I, 4 WAT, 11.2 kg/h) was 2 (50-74% control), the “post-emergent herbicidal activity index” value (Morningglory; Table II, 2 WAT, 0.011 kg/h) was 0 (0-24% control) and the “post-emergent herbicidal activity index” value (Morningglory; Table II, 2 WAT, 0.056 kg/h) was 0 (0-24% control). For the same compound, the “post-emergent herbicidal activity index” value (Morningglory; Table II, 4 WAT, 0.28 kg/h) was 2 (50-74% control), the “post-emergent herbicidal activity index” value (Morningglory; Table II, 4 WAT, 1.12 kg/h) was 2 (50-74% control) and the “post-emergent herbicidal activity index” value (Morningglory; Table II, 4 WAT, 5.6 kg/h) was 2 (50-74% control). For the same compound, the “post-emergent herbicidal activity index” value (Panicum Spp; 2 WAT, 0.011 kg/h) was 0 (0-24% control), the “post-emergent herbicidal activity index” value (Panicum Spp; 2 WAT, 0.056 kg/h) was 0 (0-24% control) and the “post-emergent herbicidal activity index” value (Panicum Spp; 4 WAT, 0.28 kg/h) was 3 (75-99% control). For the same compound, the “post-emergent herbicidal activity index” value (Panicum Spp; 4 WAT, 1.12 kg/h) was 4 (100% control), the “post-emergent herbicidal activity index” value (Panicum Spp; 4 WAT, 5.6 kg/h) was 4 (100% control) and the “post-emergent herbicidal activity index” value (Quackgrass; 5.6 kg/h) was 2 (50-74% control). For the same compound, the “post-emergent herbicidal activity index” value (Quackgrass; 11.2 kg/h) was 2 (50-74% control), the “post-emergent herbicidal activity index” value (Rice; 2 WAT, 0.011 kg/h) was 0 (0-24% control) and the “post-emergent herbicidal activity index” value (Rice; 2 WAT, 0.056 kg/h) was 0 (0-24% control). For the same compound, the “post-emergent herbicidal activity index” value (Rice; 4 WAT, 0.28 kg/h) was 0 (0-24% control), the “post-emergent herbicidal activity index” value (Rice; 4 WAT, 1.12 kg/h) was 1 (25-49% control) and the “post-emergent herbicidal activity index” value (Rice; 4 WAT, 5.6 kg/h) was 2 (50-74% control). The “post-emergent herbicidal activity index” value (Smartweed; Table I, 4 WAT, 11.2 kg/h) was 4 (100% control), the “post-emergent herbicidal activity index” value (Smartweed; Table II, 2 WAT, 0.011 kg/h) was 0 (0-24% control) and the “post-emergent herbicidal activity index” value (Smartweed; Table II, 2 WAT, 0.056 kg/h) was 0 (0-24% control). The “post-emergent herbicidal activity index” value (Smartweed; Table II, 4 WAT, 0.28 kg/h) was 4 (100% control), the “post-emergent herbicidal activity index” value (Smartweed; Table II, 4 WAT, 1.12 kg/h) was 4 (100% control) and the “post-emergent herbicidal activity index” value (Smartweed; Table II, 4 WAT, 5.6 kg/h) was 4 (100% control). The “post-emergent herbicidal activity index” value (Sorghum; 2 WAT, 0.011 kg/h) was 0 (0-24% control), the “post-emergent herbicidal activity index” value (Sorghum; 2 WAT, 0.056 kg/h) was 0 (0-24% control) and the “post-emergent herbicidal activity index” value (Sorghum; 4 WAT, 0.28 kg/h) was 2 (50-74% control). The “post-emergent herbicidal activity index” value (Sorghum; 4 WAT, 1.12 kg/h) was 2 (50-74% control), the “post-emergent herbicidal activity index” value (Sorghum; 4 WAT, 5.6 kg/h) was 3 (75-99% control) and the “post-emergent herbicidal activity index” value (Soybean; 2 WAT, 0.011 kg/h) was 0 (0-24% control). For the same compound, the “post-emergent herbicidal activity index” value (Soybean; 2 WAT, 0.056 kg/h) was 1 (25-49% control), the “post-emergent herbicidal activity index” value (Soybean; 4 WAT, 0.28 kg/h) was 1 (25-49% control) and the “post-emergent herbicidal activity index” value (Soybean; 4 WAT, 1.12 kg/h) was 1 (25-49% control). The “post-emergent herbicidal activity index” value (Soybean; 4 WAT, 5.6 kg/h) was 3 (75-99% control), the “post-emergent herbicidal activity index” value (Sugar Beet; 2 WAT, 0.011 kg/h) was 0 (0-24% control) and the “post-emergent herbicidal activity index” value (Sugar Beet; 2 WAT, 0.056 kg/h) was 0 (0-24% control). For the same compound, the “post-emergent herbicidal activity index” value (Sugar Beet; 4 WAT, 0.28 kg/h) was 3 (75-99% control), the “post-emergent herbicidal activity index” value (Sugar Beet; 4 WAT, 1.12 kg/h) was 2 (50-74% control) and the “post-emergent herbicidal activity index” value (Sugar Beet; 4 WAT, 5.6 kg/h) was 3 (75-99% control). The “post-emergent herbicidal activity index” value (Velvetleaf; Table I, 4 WAT, 5.6 kg/h) was 3 (75-99% control), the “post-emergent herbicidal activity index” value (Velvetleaf; Table I, 4 WAT, 11.2 kg/h) was 3 (75-99% control) and the “post-emergent herbicidal activity index” value (Velvetleaf; Table II, 2 WAT, 0.011 kg/h) was 0 (0-24% control). For the same compound, the “post-emergent herbicidal activity index” value (Velvetleaf; Table II, 2 WAT, 0.056 kg/h) was 0 (0-24% control), the “post-emergent herbicidal activity index” value (Velvetleaf; Table II, 4 WAT, 0.28 kg/h) was 1 (25-49% control) and the “post-emergent herbicidal activity index” value (Velvetleaf; Table II, 4 WAT, 1.12 kg/h) was 1 (25-49% control). For the same compound, the “post-emergent herbicidal activity index” value (Velvetleaf; Table II, 4 WAT, 5.6 kg/h) was 1 (25-49% control), the “post-emergent herbicidal activity index” value (Wheat; 2 WAT, 0.011 kg/h) was 0 (0-24% control) and the “post-emergent herbicidal activity index” value (Wheat; 2 WAT, 0.056 kg/h) was 0 (0-24% control). The “post-emergent herbicidal activity index” value (Wheat; 4 WAT, 0.28 kg/h) was 1 (25-49% control), the “post-emergent herbicidal activity index” value (Wheat; 4 WAT, 1.12 kg/h) was 2 (50-74% control) and the “post-emergent herbicidal activity index” value (Wheat; 4 WAT, 5.6 kg/h) was 2 (50-74% control). For the same compound, the “post-emergent herbicidal activity index” value (Wild Buckwheat; 2 WAT, 0.011 kg/h) was 0 (0-24% control), the “post-emergent herbicidal activity index” value (Wild Buckwheat; 2 WAT, 0.056 kg/h) was 0 (0-24% control) and the “post-emergent herbicidal activity index” value (Wild Buckwheat; 4 WAT, 0.28 kg/h) was 1 (25-49% control). For the same compound, the “post-emergent herbicidal activity index” value (Wild Buckwheat; 4 WAT, 1.12 kg/h) was 2 (50-74% control), the “post-emergent herbicidal activity index” value (Wild Buckwheat; 4 WAT, 5.6 kg/h) was 3 (75-99% control) and the “post-emergent herbicidal activity index” value (Yellow Nutsedge; 5.6 kg/h) was 1 (25-49% control). The “post-emergent herbicidal activity index” value (Yellow Nutsedge; 11.2 kg/h) was 1 (25-49% control).
